Experiments:
Type in all cases: in vivo
[1] = system: crabgrass, large (large crabgrass, Digitaria sanguinalis); assay: Test A pre-/postemergence: crabgrass, large; conditions: for Crabgrass, Large plant response rating: Postemergence; for Plant response rating, Crabgrass, Large: Preemergence
Summary of the method: (§1)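 Rating scale 0–100 (100 = complete control), visual, ~10 days after application in the greenhouse. Applications: preemergence directed soil spray; postemergence at 1–2 leaves.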

[2] = system: foxtail, giant (giant foxtail, Setaria faberii); assay: Test A pre-/postemergence: foxtail, giant; conditions: for Foxtail, Giant plant response rating: Postemergence; for Plant response rating, Foxtail, Giant: Preemergence
Summary of the method: as §1

[3] = system: velvetleaf (Abutilon theophrasti); assay: Test A pre-/postemergence: velvetleaf; conditions: for Velvetleaf plant response rating: Postemergence; for Plant response rating, Velvetleaf: Preemergence
Summary of the method: as §1

corn (Zea mays) = assay: Test A pre-/postemergence: corn; conditions: for Corn plant response rating: Postemergence; for Plant response rating, Corn: Preemergence
Summary of the method: as §1

rice (Oryza sativa) = assay: Test C flooded paddy test: rice; conditions: scale 0 to 100 (0 no effect, 100 complete control)
Summary of the method: (§2)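 2-leaf stage plants; pots flooded 3 cm above soil; compound applied into paddy water, depth maintained. Greenhouse 13–15 d. Visual rating vs controls, 0–100 (0 = no effect, 100 = complete control); dash = no result.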

[4] = system: barnyardgrass (Echinochloa crus-galli); assay: Test A pre-/postemergence: barnyardgrass; conditions: for Barnyardgrass plant response rating: Postemergence; for Plant response rating, Barnyardgrass: Preemergence
Summary of the method: as §1

[5] = system: morningglory (Ipomoea spp.); assay: Test A pre-/postemergence: morningglory; conditions: for Morningglory plant response rating: Postemergence; for Plant response rating, Morningglory: Preemergence
Summary of the method: as §1

[6] = system: sedge, umbrella (small-flower umbrella sedge, Cyperus difformis); assay: Test C flooded paddy test: sedge, umbrella; conditions: scale 0 to 100 (0 no effect, 100 complete control)
Summary of the method: as §2

[7] = system: pigweed (Amaranthus retroflexus); assay: Test A pre-/postemergence: pigweed; conditions: for Pigweed plant response rating: Postemergence; for Plant response rating, Pigweed: Preemergence
Summary of the method: as §1

[8] = system: ducksalad (Heteranthera limosa); assay: Test C flooded paddy test: ducksalad; conditions: scale 0 to 100 (0 no effect, 100 complete control)
Summary of the method: as §2

[9] = system: wheat (Triticum aestivum); assay: Test A pre-/postemergence: wheat; conditions: for Wheat plant response rating: Postemergence; for Plant response rating, Wheat: Preemergence
Summary of the method: as §1

[10] = system: barnyardgrass (Echinochloa crus-galli); assay: Test C flooded paddy test: barnyardgrass; conditions: scale 0 to 100 (0 no effect, 100 complete control)
Summary of the method: as §2

[11] = 125 g ai/ha, 0 to 100 scale, 0 is no effect, 100 is complete control
[12] = 500 g ai/ha, visual rating on 0 to 100 scale (0 no effect, 100 complete control), approximately ten days
[13] = 125 g ai/ha, 0 to 100 scale (0 no effect, 100 complete control)
[14] = 500 g ai/ha, 0 to 100 scale, 0 is no effect, 100 is complete control
[15] = Flood (flooded paddy test), 62 g ai/ha, visual rating after 13 to 15 days
[16] = Flood (flooded paddy test), 125 g ai/ha, visual rating after 13 to 15 days
[17] = Flood (flooded paddy test), 250 g ai/ha, visual rating after 13 to 15 days

Compound: Cc1nn(-c2ccc(C(F)F)cn2)nc1C(=O)c1cccc(C(F)(F)F)c1 [Compound 68]
- Crabgrass, Large plant response rating [1, 11]: 10
- Crabgrass, Large plant response rating [1, 12]: 10
- Plant response rating, Crabgrass, Large [1, 13]: 0
- Plant response rating, Crabgrass, Large [1, 14]: 0
- Foxtail, Giant plant response rating [2, 11]: 10
- Foxtail, Giant plant response rating [2, 12]: 10
- Plant response rating, Foxtail, Giant [2, 13]: 0
- Plant response rating, Foxtail, Giant [2, 14]: 0
- Velvetleaf plant response rating [3, 12]: 0
- Plant response rating, Velvetleaf [3, 13]: 0
- Plant response rating, Velvetleaf [3, 14]: 0
- Corn plant response rating (corn (Zea mays); [11]): 0
- Corn plant response rating (corn (Zea mays); [12]): 10
- Plant response rating, Corn (corn (Zea mays); [13]): 0
- Plant response rating, Corn (corn (Zea mays); [14]): 0
- Plant response rating, Rice (rice (Oryza sativa); [15]): 0
- Plant response rating, Rice (rice (Oryza sativa); [16]): 0
- Plant response rating, Rice (rice (Oryza sativa); [17]): 0
- Plant response rating, Rice (rice (Oryza sativa); Flood, 31 g ai/ha): 0
- Barnyardgrass plant response rating [4, 11]: 0
- Barnyardgrass plant response rating [4, 12]: 10
- Plant response rating, Barnyardgrass [4, 13]: 0
- Plant response rating, Barnyardgrass [4, 14]: 0
- Morningglory plant response rating [5, 11]: 0
- Morningglory plant response rating [5, 12]: 10
- Plant response rating, Morningglory [5, 13]: 0
- Plant response rating, Morningglory [5, 14]: 0
- Plant response rating, Sedge, Umbrella [6, 15]: 0
- Plant response rating, Sedge, Umbrella [6, 16]: 0
- Plant response rating, Sedge, Umbrella [6, 17]: 0
- Plant response rating, Sedge, Umbrella ([6]; Flood, 31 g ai/ha): 0
- Pigweed plant response rating [7, 11]: 10
- Pigweed plant response rating [7, 12]: 50
- Plant response rating, Pigweed [7, 13]: 0
- Plant response rating, Pigweed [7, 14]: 0
- Plant response rating, Ducksalad [8, 15]: 0
- Plant response rating, Ducksalad [8, 16]: 0
- Plant response rating, Ducksalad [8, 17]: 0
- Plant response rating, Ducksalad ([8]; Flood, 31 g ai/ha): 0
- Wheat plant response rating [9, 11]: 0
- Wheat plant response rating [9, 12]: 10
- Plant response rating, Wheat [9, 13]: 0
- Plant response rating, Wheat [9, 14]: 0
- Plant response rating, Barnyardgrass [10, 15]: 0
- Plant response rating, Barnyardgrass [10, 16]: 0
- Plant response rating, Barnyardgrass [10, 17]: 0
- Plant response rating, Barnyardgrass ([10]; Flood, 31 g ai/ha): 0

Compound: Cc1nn(-c2ccc(Cl)nc2)nc1C(=O)c1cccc(C(F)(F)F)c1 [Compound 72]
- Crabgrass, Large plant response rating [1, 11]: 0
- Crabgrass, Large plant response rating [1, 12]: 10
- Plant response rating, Crabgrass, Large [1, 13]: 0
- Plant response rating, Crabgrass, Large [1, 14]: 10
- Foxtail, Giant plant response rating [2, 11]: 0
- Foxtail, Giant plant response rating [2, 12]: 10
- Plant response rating, Foxtail, Giant [2, 13]: 0
- Plant response rating, Foxtail, Giant [2, 14]: 20
- Velvetleaf plant response rating [3, 11]: 0
- Velvetleaf plant response rating [3, 12]: 10
- Plant response rating, Velvetleaf [3, 13]: 0
- Plant response rating, Velvetleaf [3, 14]: 0
- Corn plant response rating (corn (Zea mays); [11]): 0
- Corn plant response rating (corn (Zea mays); [12]): 10
- Plant response rating, Corn (corn (Zea mays); [13]): 0
- Plant response rating, Corn (corn (Zea mays); [14]): 0
- Plant response rating, Rice (rice (Oryza sativa); [15]): 0
- Plant response rating, Rice (rice (Oryza sativa); [16]): 0
- Plant response rating, Rice (rice (Oryza sativa); [17]): 0
- Plant response rating, Rice (rice (Oryza sativa); Flood, 31 g ai/ha): 0
- Barnyardgrass plant response rating [4, 11]: 0
- Barnyardgrass plant response rating [4, 12]: 10
- Plant response rating, Barnyardgrass [4, 13]: 0
- Plant response rating, Barnyardgrass [4, 14]: 0
- Morningglory plant response rating [5, 11]: 0
- Morningglory plant response rating [5, 12]: 10
- Plant response rating, Morningglory [5, 13]: 0
- Plant response rating, Morningglory [5, 14]: 0
- Plant response rating, Sedge, Umbrella [6, 15]: 0
- Plant response rating, Sedge, Umbrella [6, 16]: 0
- Plant response rating, Sedge, Umbrella [6, 17]: 0
- Plant response rating, Sedge, Umbrella ([6]; Flood, 31 g ai/ha): 0
- Pigweed plant response rating [7, 11]: 10
- Pigweed plant response rating [7, 12]: 70
- Plant response rating, Pigweed [7, 13]: 0
- Plant response rating, Pigweed [7, 14]: 10
- Plant response rating, Ducksalad [8, 15]: 0
- Plant response rating, Ducksalad [8, 16]: 0
- Plant response rating, Ducksalad [8, 17]: 0
- Plant response rating, Ducksalad ([8]; Flood, 31 g ai/ha): 0
- Wheat plant response rating [9, 11]: 0
- Wheat plant response rating [9, 12]: 0
- Plant response rating, Wheat [9, 13]: 0
- Plant response rating, Wheat [9, 14]: 0
- Plant response rating, Barnyardgrass [10, 15]: 0
- Plant response rating, Barnyardgrass [10, 16]: 0
- Plant response rating, Barnyardgrass [10, 17]: 0
- Plant response rating, Barnyardgrass ([10]; Flood, 31 g ai/ha): 0
